Test [1] has as its system tHTT. Description: Mutant and total HTT multiplex HTRF assay in Q48 HTT human embryonic stem cell line: tHTT. Type of test: cell-based. Conditions: Q48 HTT hESC, 48 hours. As for the experimental part: (§1) The multiplex assay is performed in human embryonic stem cells (hESCs) which have been derived by Genea Biocells from human blastocysts of HD donors. Cells are plated at a density of 10,000 cells/well into 384-well collagen coated plates and left to adhere for 24 hours, compounds 1 to 82 are then added to cells and incubated for 48 hours (37° C., 5% CO2), cells are then lysed and the contents split into a black 384-well plate.
(§2) The black plates have a combination of HTRF labeled monoclonal antibodies added which recognize discrete areas of the HTT protein, the 2B7-Tb “donor” antibody (0.2 ng/well) recognizes a sequence at the N-terminus of the protein, an MW1-Alexa488 “acceptor 1” antibody (30 ng/well) recognizes an area in the polyQ region, whereas a MAB2166-d2 “acceptor 2” antibody (6 ng/well) recognizes a sequence beyond the polyQ region. The 2B7 antibody was obtained from Coriell (CH02024), the MW1 antibody from Millipore (MABN2427), and the MAB2166 antibody from Millipore (1HU-4C8).
(§3) These detection reagents are incubated with the cell lysate at room temperature for 4-6 hours before having their fluorescence quantified at 615 nm (donor) and 535 nm and 665 nm (acceptor 1 and 2 respectively). The donor/acceptor ratio between these signals indicates the relative quantities of mHTT and tHTT proteins. As shown in the Table 1, compounds 1 to 82 as described therein and in Table 2, had the following pIC50 values.
(Time-resolved FRET reads energy transfer from a long-lived donor to a nearby acceptor.)

In test [2] the test system is mHTT. Description: Mutant and total HTT multiplex HTRF assay in Q48 HTT human embryonic stem cell line: mHTT. Type of test: cell-based. The conditions noted are these: Q48 HTT hESC, 48 hours. On the procedure: as §1, §2, §3

As for `CN(c1ccc(-c2ccc(-c3cn[nH]c3)cc2O)nn1)C1CC(C)(C)NC(C)(C)C1` [Compound 1, 2-(6-(methyl(2,2,6,6-tetramethylpiperidin-4-yl)amino)pyridazin-3-yl)-5-(1H-pyrazol-4-yl)phenol], the “tHTT pIC50” value in test [1] was found to be 7.8065. Also, in test [2], the “Rating (based on mHTT potency)” value is given as “***** (a pIC50 value above 7.5 is indicated by five stars (*****))” and the “mHTT pIC50” value came to 7.75.
Take `CN(c1ccc(-c2cc3c(=O)n(C)ccc3cc2O)nn1)C1CC(C)(C)NC(C)(C)C1` [Compound 2, 6-hydroxy-2-methyl-7-(6-(methyl(2,2,6,6-tetramethylpiperidin-4-yl)amino)pyridazin-3-yl)isoquinolin-1(2H)-one]: in test [1], the “tHTT pIC50” value was 7.6555. Besides, in test [2], the “Rating (based on mHTT potency)” value is listed as “***** (a pIC50 value above 7.5 is indicated by five stars (*****))” and the “mHTT pIC50” value stood at 7.73.
As to `CN(c1ccc(-c2ccc(-c3cn[nH]c3)cc2O)nn1)[C@H]1C[C@]2(C)CC[C@](C)(C1)N2` [Compound 3, 2-(6-(((1R,5S)-1,5-dimethyl-8-azabicyclo[3.2.1]octan-3-yl)(methyl)amino)pyridazin-3-yl)-5-(1H-pyrazol-4-yl)phenol], the “tHTT pIC50” value in test [1] amounted to 7.609. In addition, in test [2], the “Rating (based on mHTT potency)” value is listed as “***** (a pIC50 value above 7.5 is indicated by five stars (*****))” and the “mHTT pIC50” value is on record as 7.717.
The like results for `CN(c1ccc(-c2ccc(-n3ccc(N)n3)cc2O)nn1)C1CC(C)(C)NC(C)(C)C1` [Compound 4, 5-(3-amino-1H-pyrazol-1-yl)-2-(6-(methyl(2,2,6,6-tetramethylpiperidin-4-yl)amino)pyridazin-3-yl)phenol] were, in that order, 7.5845, “***** (a pIC50 value above 7.5 is indicated by five stars (*****))” and 7.6.
With `CN(c1ccc(-c2ccc(-c3ccn(C)c(=O)c3)cc2O)nn1)C1CC(C)(C)NC(C)(C)C1` [Compound 5, 4-(3-hydroxy-4-(6-(methyl(2,2,6,6-tetramethylpiperidin-4-yl)amino)pyridazin-3-yl)phenyl)-1-methylpyridin-2(1H)-one], the “tHTT pIC50” value in test [1] is given as 7.5935. Further, in test [2], the “Rating (based on mHTT potency)” value is listed as “***** (a pIC50 value above 7.5 is indicated by five stars (*****))” and the “mHTT pIC50” value was found to be 7.591.
Consider `CN(c1nnc(-c2ccc(-c3ccc(=O)n(C)c3)cc2O)s1)C1CC(C)(C)NC(C)(C)C1` [Compound 6, 5-(3-hydroxy-4-(5-(methyl(2,2,6,6-tetramethylpiperidin-4-yl)amino)-1,3,4-thiadiazol-2-yl)phenyl)-1-methylpyridin-2(1H)-one], for which the “tHTT pIC50” value in test [1] came out at 7.493. In test [2], the “Rating (based on mHTT potency)” value is recorded as “***** (a pIC50 value above 7.5 is indicated by five stars (*****))” and the “mHTT pIC50” value was determined as 7.585.
Turning to `CC1(C)CC(Oc2ccc(-c3c(O)cc(-c4cn[nH]c4)cc3F)nn2)CC(C)(C)N1` [Compound 7, 3-fluoro-5-(1H-pyrazol-4-yl)-2-(6-((2,2,6,6-tetramethylpiperidin-4-yl)oxy)pyridazin-3-yl)phenol], the “tHTT pIC50” value in test [1] worked out at 7.51. In addition, in test [2], the “Rating (based on mHTT potency)” value is on record as “***** (a pIC50 value above 7.5 is indicated by five stars (*****))” and the “mHTT pIC50” value was 7.5265.
As to `CN(c1ccc(-c2ccc(-c3ccnc(O)c3)cc2O)nn1)C1CC(C)(C)NC(C)(C)C1` [Compound 8, 4-(3-hydroxy-4-(6-(methyl(2,2,6,6-tetramethylpiperidin-4-yl)amino)pyridazin-3-yl)phenyl)pyridin-2-ol], the “tHTT pIC50” value in test [1] came out at 7.4435. In test [2], the “Rating (based on mHTT potency)” value was “**** (a pIC50 value between 7.0 and 7.5 is indicated by four stars (****))”; the “mHTT pIC50” value is 7.4855.
Regarding `CN(c1nnc(-c2c(O)cc(-c3cn[nH]c3)cc2Cl)s1)C1CC(C)(C)NC(C)(C)C1` [Compound 9, 3-chloro-2-(5-(methyl(2,2,6,6-tetramethylpiperidin-4-yl)amino)-1,3,4-thiadiazol-2-yl)-5-(1H-pyrazol-4-yl)phenol], the “tHTT pIC50” value in test [1] amounted to 7.353. In addition, in test [2], the “Rating (based on mHTT potency)” value is “**** (a pIC50 value between 7.0 and 7.5 is indicated by four stars (****))”; the “mHTT pIC50” value worked out at 7.4435.
Regarding `Cc1cc2cc(-c3ccc(N(C)C4CC(C)(C)NC(C)(C)C4)nn3)c(O)cc2c(C#N)n1` [Compound 10, 7-hydroxy-3-methyl-6-(6-(methyl(2,2,6,6-tetramethylpiperidin-4-yl)amino)pyridazin-3-yl)isoquinoline-1-carbonitrile], the “tHTT pIC50” value in test [1] was determined as 7.3875. In addition, in test [2], the “Rating (based on mHTT potency)” value was “**** (a pIC50 value between 7.0 and 7.5 is indicated by four stars (****))”; the “mHTT pIC50” value is reported as 7.4395.
Turning to `Cc1cc2cc(O)c(-c3ccc(N(C)C4CC(C)(C)NC(C)(C)C4)nn3)cc2c(C)n1` [Compound 11, 1,3-dimethyl-7-(6-(methyl(2,2,6,6-tetramethylpiperidin-4-yl)amino)pyridazin-3-yl)isoquinolin-6-ol], the “tHTT pIC50” value in test [1] is recorded as 7.3965. Also, in test [2], the “Rating (based on mHTT potency)” value was “**** (a pIC50 value between 7.0 and 7.5 is indicated by four stars (****))”; the “mHTT pIC50” value amounted to 7.3875.
Turning to `CC1(C)CC(Nc2ccc(-c3ccc(-n4cccn4)cc3O)nn2)CC(C)(C)N1` [Compound 12, 5-(1H-pyrazol-1-yl)-2-(6-((2,2,6,6-tetramethylpiperidin-4-yl)amino)pyridazin-3-yl)phenol], the “tHTT pIC50” value in test [1] was 7.2825. Further, in test [2], the “Rating (based on mHTT potency)” value is “**** (a pIC50 value between 7.0 and 7.5 is indicated by four stars (****))”; the “mHTT pIC50” value is 7.379.
For `CN(c1nnc(-c2ccc(-c3cn[nH]c3)cc2O)s1)C1CC(C)(C)NC(C)(C)C1` [Compound 13, 2-(5-(methyl(2,2,6,6-tetramethylpiperidin-4-yl)amino)-1,3,4-thiadiazol-2-yl)-5-(1H-pyrazol-4-yl)phenol], the “tHTT pIC50” value in test [1] came to 7.383. In test [2], the “Rating (based on mHTT potency)” value was “**** (a pIC50 value between 7.0 and 7.5 is indicated by four stars (****))”; the “mHTT pIC50” value is given as 7.3545.
On to `CN(c1ccc(-c2cc(Cl)c(-c3cn[nH]c3)cc2O)nn1)C1CC(C)(C)NC(C)(C)C1` [Compound 14, 4-chloro-2-(6-(methyl(2,2,6,6-tetramethylpiperidin-4-yl)amino)pyridazin-3-yl)-5-(1H-pyrazol-4-yl)phenol], for which the “tHTT pIC50” value in test [1] is reported as 7.389. For the same compound, in test [2], the “Rating (based on mHTT potency)” value was “**** (a pIC50 value between 7.0 and 7.5 is indicated by four stars (****))”; the “mHTT pIC50” value was found to be 7.35.
For the compound `Cc1ccc2cc(O)c(-c3ccc(N(C)C4CC(C)(C)NC(C)(C)C4)nn3)cc2n1` [Compound 15, 2-methyl-7-(6-(methyl(2,2,6,6-tetramethylpiperidin-4-yl)amino)pyridazin-3-yl)quinolin-6-ol], the “tHTT pIC50” value in test [1] is 7.283. In addition, in test [2], the “Rating (based on mHTT potency)” value was “**** (a pIC50 value between 7.0 and 7.5 is indicated by four stars (****))”; the “mHTT pIC50” value was 7.349.
Consider `CN(c1nnc(-c2ccc(-c3cnn(C)c3)cc2O)s1)C1CC(C)(C)NC(C)(C)C1` [Compound 16, 2-(5-(methyl(2,2,6,6-tetramethylpiperidin-4-yl)amino)-1,3,4-thiadiazol-2-yl)-5-(1-methyl-1H-pyrazol-4-yl)phenol], for which the “tHTT pIC50” value in test [1] is 7.481. For the same compound, in test [2], the “Rating (based on mHTT potency)” value was “**** (a pIC50 value between 7.0 and 7.5 is indicated by four stars (****))”; the “mHTT pIC50” value stood at 7.3285.
`Cc1cnc2cc(-c3ccc(N(C)C4CC(C)(C)NC(C)(C)C4)nn3)c(O)cc2c1` [Compound 17, 3-methyl-7-(6-(methyl(2,2,6,6-tetramethylpiperidin-4-yl)amino)pyridazin-3-yl)quinolin-6-ol]: the “tHTT pIC50” value in test [1] is given as 7.424. Further, in test [2], the “Rating (based on mHTT potency)” value was “**** (a pIC50 value between 7.0 and 7.5 is indicated by four stars (****))”; the “mHTT pIC50” value worked out at 7.2895.
On to `CN(c1ccc(-c2ccc(-n3cccn3)cc2O)nn1)C1CC(C)(C)NC(C)(C)C1` [Compound 19, 2-(6-(methyl(2,2,6,6-tetramethylpiperidin-4-yl)amino)pyridazin-3-yl)-5-(1H-pyrazol-1-yl)phenol], for which the “tHTT pIC50” value in test [1] is recorded as 7.178. In test [2], the “Rating (based on mHTT potency)” value is “**** (a pIC50 value between 7.0 and 7.5 is indicated by four stars (****))”; the “mHTT pIC50” value is 7.2235.
On to `COc1cc(-c2cnn(C)c2)cc(O)c1-c1ccc(N(C)C2CC(C)(C)NC(C)(C)C2)nn1` [Compound 20, 3-methoxy-2-(6-(methyl(2,2,6,6-tetramethylpiperidin-4-yl)amino)pyridazin-3-yl)-5-(1-methyl-1H-pyrazol-4-yl)phenol], for which the “tHTT pIC50” value in test [1] turned out to be 7.106. In addition, in test [2], the “Rating (based on mHTT potency)” value is “**** (a pIC50 value between 7.0 and 7.5 is indicated by four stars (****))”; the “mHTT pIC50” value was found to be 7.22.
In the case of `CN(c1ccc(-c2cc3ccc(C(N)=O)nc3cc2O)nn1)C1CC(C)(C)NC(C)(C)C1` [Compound 21, 7-hydroxy-6-(6-(methyl(2,2,6,6-tetramethylpiperidin-4-yl)amino)pyridazin-3-yl)quinoline-2-carboxamide], the “tHTT pIC50” value in test [1] is recorded as 7.221. In test [2], the “Rating (based on mHTT potency)” value was “**** (a pIC50 value between 7.0 and 7.5 is indicated by four stars (****))”; the “mHTT pIC50” value turned out to be 7.203.
